Experimental data: patent publication US20160304577A1, “GLYCOSYLATED GLYCOPHORIN PEPTIDES” (GLYCOTOPE GMBH, priority 2013, published 2016)
Entries after “also recorded” stand apart in the source; their conditions may differ. No end group written: not given here.

What was measured:
dendritic cells [1] = assay: Effect of antigen processing inhibitors on presentation of TFα derived from aGPA (flow cytometry, Nemod-TF1); format: cell-based, human; conditions: DCs treated with inhibitor of lysosomal acidification prior to loading with aGPA
Protocol: DCs were pretreated with indicated concentrations of chloroquine (a) and ammonium chloride (b) before aGPA was added. Presentation of TFα was analyzed by flow cytometry using Nemod-TF1. Data are presented as the percentage of the relative presentation which was calculated according to the following formula: (percentage of positive cells incubated with antigen processing inhibitors)/(percentage of positive cells of untreated cells)×(100)). The means of one experiment performed in duplicates are shown.
In order to characterize the processing pathway of aGPA, dendritic cells were treated with inhibitors of lysosomal acidification, chloroquine and ammonium chloride (MHC class II processing) prior to loading. […] These findings verify that aGPA is processed in the cell before TFα is presented on the cell surface.

DCs = assay: Presentation of biotin-conjugated GPA-derived peptides on DCs, fluorescence-labeled streptavidin, flow cytometry; format: cell-based, human
Protocol: DCs were loaded with the biotin-conjugated peptides GPA1-9(3TF), GPA9-25(4TF), GPA9-25(6TF), GPA26-43(2TF), GPA34-55(4TF), GPA41-55(3TF), GPA45-55(2TF), GPA48-55(1TF) and GPA48-63(1TF). Presentation was determined by fluorescence-labeled streptavidin. The subpopulations of CD80+CD209+, CD80+CD209− and CD80−CD209− mature DCs were analyzed separately. Mean percentages+SD of one experiment performed in duplicates are shown.
DCs were loaded with the biotin-conjugated peptides. Presentation was determined by fluorescence-labeled streptavidin. The subpopulations CD80+CD209+, CD80+CD209- and CD80−CD209− mature DCs were analyzed separately. Mean percentages+SD of one experiment performed in triplicates are shown.
For that reason the GPA-derived TF-α glycosylated peptides GPA1-9(3TF), GPA9-25(4TF), GPA9-25(6TF), GPA26-43(2TF), GPA34-55(4TF), GPA41-55(3TF), GPA45-55(2TF), GPA48-55(1TF) and GPA48-63(1TF) were employed.
By using four different glycosylation variants of GPA26-43, it was aimed to investigate the effect of TFα-glycosylation on the presentation in more detail.

TFα-specific T cells [2] = assay: IFN-γ ELISPOT, restimulation of B. ovatus-primed T cells with peptide-loaded DCs; format: cell-based, human; conditions: T cells primed with TFα-positive B. ovatus strain
Protocol: PBMCs of a healthy donor were primed with DCs loaded with TFα positive B. ovatus (BO+). Restimulation with GPA26-43(2TF) and GPA34-55(4TF) was analyzed by IFN-γ ELISPOT. The mean numbers of IFN-γ+spots+SEM of one experiment performed in triplicates is shown.
In order to analyze whether DCs loaded with peptide GPA26-43(2TF) or GPA34-55(4TF) can activate TFα-specific T cells, they were used for restimulation of T cells primed with a TFα-positive B. ovatus strain. Restimulation was detected by an IFN-γ ELISPOT assay. […] Since TFα is the only overlapping structure between the TFα-positive B. ovatus strain and the TFα-glycosylated GPA-derived peptides GPA26-43(2TF) and GPA34-55(4TF), it is obvious that the restimulated T cells were TFα-specific. […] This immune response, when elicited in a human being, can protect against cells carrying said carbohydrate structure. In the case of tumor-associated carbohydrate antigens such as TFα, vaccination against and treatment of cancer comprising cells carrying said carbohydrate antigen is possible with these glycosylated glycophorin peptides. Therefore, based on this experiment, GPA-derived TF-α glycosylated peptides are proposed for the use of treating or preventing cancer in human.

dendritic cells [3] = assay: Flow cytometry of TFα presentation on dendritic cells loaded with aGPA or GPA (Nemod-TF1, Nemod-TF2); format: cell-based, human
Protocol: GPA- and aGPA-loaded cells were stained with Nemod-TF1 and Nemod-TF2 and analyzed by flow cytometry. The subpopulations of CD80+CD209+, CD80+CD209− and CD80−CD209− cells were analyzed separately. The mean percentages of positive cells+SD of one experiment performed in duplicates are shown.
DCs were loaded with aGPA and GPA for indicated time periods. Presentation of TFα was analyzed on the subpopulations of CD80+CD209+ (a), CD80+CD209− (b) and CD80−CD209− (c) DCs by flow cytometry using Nemod-TF1. Data are presented as mean percentage of positive cells±SD of one experiment performed in duplicates.
In order to analyze the antigen presentation of aGPA in more detail, dendritic cells loaded with aGPA and GPA were analyzed by flow cytometry using anti-TFα antibodies and for co-staining anti-CD80 and anti-CD209 antibodies.
In order to test whether aGPA is unspecifically attached to the cell surface of DCs, aGPA was added 10 min prior to the analysis of surface presentation with the TFα-specific antibody Nemod-TF1 and compared to TFα-presentation after loading times of 1 and 2 d. […] This is important since the presentation on MHC proteins is crucial for activation of TF-α specific T cells.

TFα-specific T cells [4] = assay: IFN-γ ELISPOT, second restimulation of TFα-specific T cells with aGPA- or GPA-loaded dendritic cells; format: cell-based; conditions: T cells primed with TFα positive B. ovatus strain and restimulated with lysate of TFα positive human cell line
Protocol: PBMCs of a healthy donor were twice primed with DCs loaded with a TFα positive B. ovatus strain (BO+). Restimulation with DCs loaded with lysate of a TFα positive (HC+) or TFα negative (HC−) human cell line was analyzed by IFN-γ ELISPOT. T cells restimulated with TFα positive cells were further cultivated and restimulated in a second round with aGPA- and GPA-loaded DCs, which was analyzed by IFN-γ ELISPOT. The mean numbers of IFN-γ+spots+SEM of one experiment performed in triplicates (1st restimulation) or of four replicates (2nd restimulation) are shown. IFN-γ+spots of PBMCs without restimulation were subtracted. Statistical analysis was performed using 1 way ANOVA (***: P<0.001).
In order to analyze whether asialoglycophorin A (aGPA)-loaded dendritic cells (DCs) have the potential to activate TFα-specific T cells, a T cell culture, which was primed with a TFα positive B. ovatus strain and restimulated with lysate of a TFα positive human cell line, was restimulated in a second round with dendritic cells loaded with either aGPA or glycophorin A (GPA).

For Cl.N [ammonium chloride], the “effect on presentation of TFα derived from aGPA” value (dendritic cells [1]) was “blocked the presentation of TFα”.

For CCN(CC)CCCC(C)Nc1ccnc2cc(Cl)ccc12 (stereo not shown) [chloroquine], the “effect on presentation of TFα derived from aGPA” value (dendritic cells [1]) was “blocked the presentation of TFα”.

“GPA1-9(3TF): biotin-conjugated GPA-derived TF-α glycosylated peptide (SSTTGVAMH; also: 3 TF-α glycans, sites not given here, biotin-conjugated, site not given here)” was tested, and the “presentation of peptide on DCs (percentage of positive cells)” value (DCs) was “strongest presentation on DCs”.

With “GPA26-43(1TFaa33): glycosylation variant of GPA26-43, biotin-conjugated peptide (NDTHKRDT(TF‑α)YAATPRAHEV; also: biotin-conjugated, site not given here)” the “presentation of peptide on DCs (percentage of positive cells)” value (DCs) was “presented at a similar percentage”.

With “GPA26-43(1TFaa37): glycosylation variant of GPA26-43, biotin-conjugated peptide (NDTHKRDTYAAT(TF‑α)PRAHEV; also: biotin-conjugated, site not given here)” the “presentation of peptide on DCs (percentage of positive cells)” value (DCs) was “less effectively presented than GPA26-43(1TFaa33) and GPA26-43, but more effectively than GPA26-43(2TF)”.

“GPA26-43(2TF): biotin-conjugated GPA-derived TF-α glycosylated peptide (NDTHKRDTYAATPRAHEV; also: 2 TF-α glycans, sites not given here, biotin-conjugated, site not given here)” was tested, and the “activation of T cells on restimulation with peptide-loaded DCs (IFN-γ ELISPOT)” value (TFα-specific T cells [2]) was “stronger activation of T cells compared to DCs loaded with GPA34-55(4TF)” and the “presentation of peptide on DCs (percentage of positive cells)” value (DCs) was “strongest presentation on DCs; also recorded: better presentation on DCs than GPA34-55(4TF); also recorded: found to be presented on DCs”.

With “GPA26-43: the unglycosylated GPA26-43, biotin-conjugated peptide (NDTHKRDTYAATPRAHEV; also: biotin-conjugated, site not given here) [reference compound]” the “presentation of peptide on DCs (percentage of positive cells)” value (DCs) was “presented at a similar percentage”.

In the case of “GPA48-63(1TF): biotin-conjugated GPA-derived TF-α glycosylated peptide (VRTVYPPEEETGERVQ; also: 1 TF-α glycan, site not given here, biotin-conjugated, site not given here)”, the “presentation of peptide on DCs (percentage of positive cells)” value (DCs) is reported as “strongest presentation on DCs”.

B1: asialoglycophorin A (protein)
chain: SSTTGVAMHTSTSSSVTKSYISSQTNDTHKRDTYAATPRAHEVSEISVRTVYPPEEETGERVQLAHHFSEPEITLIIFGVMAGVIGTILLISTGIRRLIKKSPSDVKPLPSPDTDVPLSSVEIENPETSDQ
notes: asialoglycophorin A (aGPA)
In the case of B1, the “percentage of Nemod-TF1- and Nemod-TF2-positive cells (TFα presentation) on loaded DCs” value (dendritic cells [3]; CD80+CD209+, CD80+CD209− and CD80−CD209− DCs) is reported as “increased percentage of Nemod-TF1- and Nemod-TF2-positive cells compared to GPA-loaded cells”, the “TFα presentation on DCs when added just before staining (unspecific attachment)” value (dendritic cells [3]; added 10 min prior to analysis with Nemod-TF1, compared to loading times of 1 and 2 d, all three DC subpopulations) is reported as “no presentation was found” and the “activation of T cells on restimulation with loaded dendritic cells (IFN-γ ELISPOT)” value (TFα-specific T cells [4]) is reported as “visible activation of T cells”.

B2: glycophorin A (protein)
chain: SSTTGVAMHTSTSSSVTKSYISSQTNDTHKRDTYAATPRAHEVSEISVRTVYPPEEETGERVQLAHHFSEPEITLIIFGVMAGVIGTILLISTGIRRLIKKSPSDVKPLPSPDTDVPLSSVEIENPETSDQ
notes: glycophorin A (GPA)
With B2 the “activation of T cells on restimulation with loaded dendritic cells (IFN-γ ELISPOT)” value (TFα-specific T cells [4]) was “almost no restimulation”.
